Consider two substances from patent US20220125897A1, “Antithrombin-III Treatment of Traumatic Brain Injury” (THE TRUSTEES OF THE UNIVERSITY OF PENNSYLVANIA, priority 2020, published 2022).

Experiment [1] is described as follows: Body weight loss after CCI. Format: in vivo. To be noted: CCI mice, 48 hours after TBI; (W0h-W48h)/W0h×100%; ±SEM. The method, then: (§1) Procedures received approval from the University of Pennsylvania Institutional Animal Care and Use Committee. CD1 adult male mice (25-30 g) (Charles River Laboratories; Wilmington, Mass.) were acclimated in standard housing with ad libitum water and chow for 5 days before experiments and immediately after recovery from brain injury. Mice underwent controlled cortical impact (CCI) or sham craniotomy (SHAM) and then received one of three agents: 1) subcutaneous enoxaparin (ENX, 1.5 mg/kg) (Winthrop, Sanofi-Aventis; Bridgewater, N.J.); intravenous (femoral vein) pharmaceutical grade antithrombin-III (AT-III, 250 IU/kg, donated by Grifols S.A. (Durham, N.C.); or 3) an equal volume of IV normal saline (0.9% NS, Baxter; Deerfield, Ill.). Doses were administered 0.5 and 24 hours after the CCI (FIG. 1). […]
(§2) Animal body weights (BW) were obtained just before (W0h) as well as 24 and 48 hours after CCI with animal weight loss expressed as a ratio: (W0h-W24h or W48h)/W0h×100%. Murine neurologic function was assessed by the modified Stroke Garcia Neurologic Test (GNT) assessing motor, sensory, reflex, and balance ability at 24 hours and 48 hours after TBI. […]

Experiment [2] relates to CD1 mice, controlled cortical impact (CCI) severe TBI model. The experiment is described as follows: Morris water maze probe trials (long-term memory). Format: in vivo. To be noted: days 10 to 14 post-TBI, CCI mice vs CCI-VEH. The method, then: (§3) Experimental procedures were conducted with the approval of the University of Pennsylvania Institutional Animal Care and Use Committee. CD1 adult male mice (25-30 g) (Charles River Laboratories, Wilmington, Mass.) were acclimatized in standard housing with water and chow ad libitum for 7 days before experiments after which they underwent sham craniotomy or craniotomy accompanied by controlled cortical impact (CCI), a well-validated severe TBI rodent model (Pascual et al., Am J Surg. 2013;206(6):840-846; Smith et al., J Neurotrauma. 1995; 12(2):169-178). […] Doses were administered 0.5 and 24 hours after CCI (FIG. 1) as determined by previous published reports and the manufacturer's recommendations (ElSaadani et al., J Trauma Acute Care Surg. 2021; 90(2):274-280; Uchiba et al., Thromb Res. 1998; 89(5):233-241; Uchiba et al., Semin Thromb Hemost. 1997; 23(6):583-590). […]
(§4) Learning and memory were evaluated in a Morris water maze (MWM) using a previously published protocol (Vorhees et al., Nat Protoc. 2006; 1(2):848-858; Jacovides et al., J Trauma Acute Care Surg. 2019; 87(3):552-558). […] All swimming trials were conducted and scored by the same operator, at the same time of day on all experiment days incorporating a computerized video-tracking and recording system over the pool to facilitate analysis (Ethovision; Noldus, Leesburg, Va.). […]

Experiment [3] shares this test system. Nature of the experiment: Pial intravital microscopy: FITC-albumin leakage (microvascular permeability). Format: in vivo. To be noted: for Cerebrovascular FITC-albumin leakage: 48 hours after CCI, doses 0.5 and 24 hours after CCI, ±SEM. How it is done: (§5) Procedures received approval from the University of Pennsylvania Institutional Animal Care and Use Committee. CD1 adult male mice (25-30 g) (Charles River Laboratories; Wilmington, Mass.) were acclimated in standard housing with ad libitum water and chow for 5 days before experiments and immediately after recovery from brain injury. Mice underwent controlled cortical impact (CCI) or sham craniotomy (SHAM) and then received one of three agents: 1) subcutaneous enoxaparin (ENX, 1.5 mg/kg) (Winthrop, Sanofi-Aventis; Bridgewater, N.J.); intravenous (femoral vein) pharmaceutical grade antithrombin-III (AT-III, 250 IU/kg, donated by Grifols S.A. (Durham, N.C.); or 3) an equal volume of IV normal saline (0.9% NS, Baxter; Deerfield, Ill.). Doses were administered 0.5 and 24 hours after the CCI (FIG. 1).
(§6) Seventy-one (71) mice were randomly assigned to one of six groups: 1) sham craniotomy and vehicle (VH, 0.9% normal saline, Baxter Healthcare Corporation; Deerfield, Ill.), (SHAM +VEH, n=9); 2) sham craniotomy and ENX (SHAM+ENX, n=8); 3) sham craniotomy and AT-III (SHAM+AT-III, n=9); 4) TBI and vehicle (CCI+VEH, n=19); TBI and ENX (CCI+ENX, n=13); and 6) TBI and AT-III (CCI+AT-III, n=13).
CCI was used to replicate TBI through a well-validated rodent model (16, 17). Briefly, on day 1, mice were anesthetized with intraperitoneal ketamine (Hospira; Lake Forest, Ill.), xylazine (Alcorn; Decatur, Ill.), and acepromazine (Boehringer Ingelheim; St. Joseph, Mo.) (KXA: 100, 10, 1 mg/kg, respectively) and place prone in a stereotactic device. After scalp exposure, a left-sided 4-mm craniotomy was created between bregma and lambda structures using a dental drill (Henry Schein; Melville, N.Y.) without violating the dura. […]
Footage captured under the 488 nm filter was evaluated for fluorescence intensity from FITC-labelled albumin measured in three distinct regions within the vessel (venular intensity) and outside the vessel walls (perivenular intensity) (FIGS. 3A and 3B). […]

Experiment [4] shares this test system. The experiment is described as follows: Pial intravital microscopy: in vivo LEU/EC interactions. To be noted: pial penumbral microcirculation, 48 hours after CCI, doses 0.5 and 24 hours after CCI, ±SEM. The method, then:
as §5, §6
(§7) CCI was used to replicate TBI through a well-validated rodent model (16, 17). Briefly, on day 1, mice were anesthetized with intraperitoneal ketamine (Hospira; Lake Forest, Ill.), xylazine (Alcorn; Decatur, Ill.), and acepromazine (Boehringer Ingelheim; St. Joseph, Mo.) (KXA: 100, 10, 1 mg/kg, respectively) and place prone in a stereotactic device. After scalp exposure, a left-sided 4-mm craniotomy was created between bregma and lambda structures using a dental drill (Henry Schein; Melville, N.Y.) without violating the dura.
In vivo assessment of cerebral microcirculation using pial intravital microscopy was performed 48 hours after CCI as described previously, as this is the optimal time to observe peak leukocyte mobilization to the BBB penumbra after brain injury. Under KXA anesthesia, the right jugular vein was cannulated and a second 2.5 mm craniotomy was created immediately anterior to the first and covered with a 5 mm coverslip (Fisher Scientific; Waltham, Mass.). […]
Video data captured at 590 nm λ were imported into analysis software (NIS-Elements, Nikon Instruments; Melville, N.Y.) and LEU/EC interactions were counted by a blinded observer quantifying the following parameters: 1) LEU transit: mean number of labelled EU crossing a 100 μm long venular segment in 60 seconds; and 2) LEU adhesion: number of LEU stationary for at least 30 seconds during the recording period. Fluorescently labelled spherical cells measuring 7 to 12 μm were counted as LEU and interactions were reported as the number of cells/100 μm per minute (FIGS. 2A and 2B).

For experiment [5] the test system is unchanged. Nature of the experiment: Morris water maze spatial learning trials. Format: in vivo. To be noted: ±SEM. The method, then: as §3, with “12(2):169-178). Mice were anesthetized with intraperitoneal ketamine (Hospira, Lake Forest, Ill.), xylazine (Akorn, Decatur, Ill.), and acepromazine (Boehringer Ingelheim, St. Joseph, Mo.) (100, 10, 1 mg/kg, respectively) followed by subcutaneous bupivacaine (0.5 mg/mL) for longer-term analgesia. After creation of a left-sided, 4-mm craniotomy between bregma and lambda sutures, the exposed left parietotemporal cortex was injured via a controlled cortical impactor (AMS201; AmScien Instruments, Richmond, Va.).” for “12(2):169-178).”
as §4
On postcraniotomy days 9 to 13, daily spatial learning trials evaluated the animals' ability to use environmental visual cues to locate and reach the platform. […]

Experiment [6] shares this test system. Nature of the experiment: Morris water maze cued learning trials. Format: in vivo. The method, then:
Experimental procedures were conducted with the approval of the University of Pennsylvania Institutional Animal Care and Use Committee. CD1 adult male mice (25-30 g) (Charles River Laboratories, Wilmington, Mass.) were acclimatized in standard housing with water and chow ad libitum for 7 days before experiments after which they underwent sham craniotomy or craniotomy accompanied by controlled cortical impact (CCI), a well-validated severe TBI rodent model (Pascual et al., Am J Surg. 2013;206(6):840-846; Smith et al., J Neurotrauma. 1995; 12(2):169-178). Mice were anesthetized with intraperitoneal ketamine (Hospira, Lake Forest, Ill.), xylazine (Akorn, Decatur, Ill.), and acepromazine (Boehringer Ingelheim, St. Joseph, Mo.) (100, 10, 1 mg/kg, respectively) followed by subcutaneous bupivacaine (0.5 mg/mL) for longer-term analgesia. After creation of a left-sided, 4-mm craniotomy between bregma and lambda sutures, the exposed left parietotemporal cortex was injured via a controlled cortical impactor (AMS201; AmScien Instruments, Richmond, Va.). Controlled cortical impact settings (3-mm-diameter impactor tip, impact velocity of 6 m/s, and cortical deformation depth of 1 mm) replicated severe TBI (Smith et al., J Neurotrauma. 1995; 12(2):169-178). Rodents were then randomly allocated to receive either: (1) intravenous (via femoral vein) pharmaceutical grade AT-III (250 IU/kg, donated by Grifols S. A., Durham, N.C.) or (2) an equal volume of normal saline IV (0.9% NS; Baxter; Deerfield, Ill.) as a vehicle (VEH). Doses were administered 0.5 and 24 hours after CCI (FIG. 1) as determined by previous published reports and the manufacturer's recommendations (ElSaadani et al., J Trauma Acute Care Surg. 2021; 90(2):274-280; Uchiba et al., Thromb Res. 1998; 89(5):233-241; Uchiba et al., Semin Thromb Hemost. 1997; 23(6):583-590).
Fifteen mice (ElSaadani et al., J Trauma Acute Care Surg. 2021; 90(2):274-280) were randomized into three groups: (1) sham craniotomy (no CCI) plus VEH (SHAM, n=5), (2) TBI and VEH (CCI-VEH, n=5), and (3) TBI and AT-III (CCI−AT-III, n=5).
Learning and memory were evaluated in a Morris water maze (MWM) using a previously published protocol (Vorhees et al., Nat Protoc. 2006; 1(2):848-858; Jacovides et al., J Trauma Acute Care Surg. 2019; 87(3):552-558). After a recovery period of 6 days, each animal underwent daily. MWM trials of learning and memory for 9 consecutive days. […] All swimming trials were conducted and scored by the same operator, at the same time of day on all experiment days incorporating a computerized video-tracking and recording system over the pool to facilitate analysis (Ethovision; Noldus, Leesburg, Va.). […]

For experiment [7], the system named is CD1 mice, controlled cortical impact (CCI) or sham craniotomy. Nature of the experiment: Brain water content (brain edema, wet-to-dry ratio). To be noted: for Contralateral (%) Mean brain water content / Contralateral (%) Median brain water content / Ipsilateral (%) Mean brain water content / Ipsilateral (%) Median brain water content / Ratio (ipsi/contra) brain water content: 48 hours after CCI; for cerebral edema as compared to CCI+VEH: 48 hours, p>0.05. Format: in vivo. The method, then:
as §5, §6, §7
Forty-eight hours after CCI, mice were sacrificed and excised brains were separated into injured (ipsilateral) and uninjured (contralateral) hemispheres. Wet weight (WW) was immediately assessed. Dry weight (DW) was assessed after 72 hours of dehydration at 70° C. Tissue water content was calculated using wet-to-dry ratios: % water content=100×(WW−DW)/WW.

Experiment [8] has as its system CD1 mice, controlled cortical impact (CCI) severe TBI model. Nature of the experiment: Garcia Neurological Test (GNT). Format: in vivo. To be noted: injured (CCI) mice, 24 or 48 hour post-TBI; maximum 18 points; ±SEM. The method, then: as §1, §2

antithrombin-III [AT-III] showed a Body weight loss in experiment [1] of 8.4±1%. In addition, the “cognitive recovery: memory” value in experiment [2] was “not memory”. Besides, the “Cerebrovascular FITC-albumin leakage” value in experiment [3] came to 41.9±2.8%. Further, the “decrease of macromolecular leakage (blood brain barrier integrity)” value in experiment [3] (pial vessels, vs untreated injured) is on record as “more than 25%”. In experiment [4], this substance yielded an LEU adhesion of 3.2±0.5 LEUs/100 um/min and an LEU transit of 24.8±2.1 LEUs/100 um/min. Also, the “mean group cumulative swimming time” value in experiment [5] (all 5 days of spatial learning trials, CCI mice) stood at 17.6 ± 1.5 s. For the same substance, the “swimming time (time to reach platform)” value in experiment [5] (day 13, last day of spatial learning trials, CCI mice) is 17.6 ± 3.9 s. In addition, the overall swim distance in experiment [5] (spatial learning trials, days 9 to 13, CCI mice) is 306.9±27.9 cm. Further, in experiment [6] (cued learning trials, compared with SHAM), the “time to reach the exposed platform, course over days” value is “eventually reached SHAM times by day 7”. This substance also registered a swimming velocity in experiment [6] (cued learning trials, days 6-8 post-TBI, ±SEM) of 28.4 ± 1.1 cm/s. Besides, the “mean time to reach the platform” value in experiment [6] (cued learning trials, ±SEM) worked out at 20.1 ± 3.1 s. In addition, the “cumulative cued learning (overall mean group time to reach the platform)” value in experiment [6] (throughout days 6 to 8 post-TBI, ±SEM) was 20.3 ± 2.1 s. In experiment [7], the “Contralateral (%) Mean brain water content” value is listed as 75.12%, the “Contralateral (%) Median brain water content” value is listed as 77.7%, the “Ipsilateral (%) Mean brain water content” value was found to be 77.64% and the “Ipsilateral (%) Median brain water content” value is listed as 78.6192%. Also, in experiment [7], the “Ratio (ipsi/contra) brain water content” value stood at 1.033 and the “cerebral edema as compared to CCI+VEH” value is “did not significantly reduce cerebral edema”. Also, the “GNT score (stroke functional recovery score)” value in experiment [8] was found to be 13.1±0.3.

Regarding enoxaparin [ENX, reference compound], the “Cerebrovascular FITC-albumin leakage” value in experiment [3] was found to be 49.1±2.3%. In experiment [4], this substance had an LEU adhesion of 3.5±0.8 LEUs/100 um/min and an LEU transit of 24.9±2.8 LEUs/100 um/min. Further, in experiment [7], the “Contralateral (%) Mean brain water content” value was 77.26%, the “Contralateral (%) Median brain water content” value worked out at 77.38%, the “Ipsilateral (%) Mean brain water content” value is 78.3674% and the “Ipsilateral (%) Median brain water content” value came to 79.03%. In addition, in experiment [7], the “Ratio (ipsi/contra) brain water content” value was 1.014 and the “cerebral edema as compared to CCI+VEH” value is “did not significantly reduce cerebral edema”. The “GNT score (stroke functional recovery score)” value in experiment [8] is listed as 12.4±0.4.
